{
  "source": "patent US9034846B2",
  "about": "“Use of cyclodextrin for treatment and prevention of bronchial inflammatory diseases” (UNIVERSITE DE LIEGE, priority 2004, dated 2015)",
  "tested_on": "OVA exposed mice",
  "test": "Bronchial responsiveness to methacholine (Penh, barometric plethysmograph)",
  "format": "in vivo, mouse",
  "description": "In order to study modulation of airway inflammation, males BALB/c mice of 6 to 8 weeks old were sensitized by intraperitoneal injection of 10 μg ovalbumin (OVA) (Sigma Aldrich, Schnelldorf, Germany) emulsified in aluminum hydroxyde (AlumInject; Perbio, Erembodegem, Belgium) on days 1 and 8. Mice were subsequently exposed to allergens by daily inhalation of an aerosol of OVA 1%, for 30 minutes, generated by ultrasonic nebulizer (Devilbiss 2000), from day 21 to 27. […] Mice were sacrificed performed on day 28 as previously reported by Cataldo and al in Am. J. Pathol 2002; 161(2):491-498.\nTwenty-four hours after the last allergen exposure, the bronchial hyper responsiveness was determined by measuring the Penh (Enhanced Pause) using a barometric plethysmograph (Emka technologies, Paris) as proposed by Hamelmann, E., et al., Am. J. Respir. Crit. Care Med. 156 (1997) 766-775). The Penh was measured at baseline and […] after the inhalation of increasing doses (25, 50, 75 and 100 mM) of methacholine (Mch).",
  "data": [
    {"substance": "hydroxypropyl-βcyclodextrin [HP-β-CD]", "values": [
      {"measurement": "area under the methacholine dose-response curve (A.U.C)", "setting": "50 mM", "value": "significant decrease"},
      {"measurement": "methacholine-induced Penh increase", "setting": "50 mM inhalation, FIG. 4", "value": "reduced"}
    ]}
  ]
}
